Where a name gives a salt, the structure may show the parent alone.

The subject of one assay is brain membrane sodium channels.
Assay: not given
To be noted: vesicular preparation of male Wistar rat cortices, 25 nM [^3H]batrachotoxin, 60 minutes at 25°C; read-out: Inhibition of [^3H]Batrachotoxin Binding IC50.
In general, IC50 refers to the concentration that inhibits the measured activity by half. For `CCCN(c1ccncc1F)n1ccc2cc(O)ccc21` [1-[Propyl-4-(3-fluoropyridinyl)amino]-1H-indol-5-ol hydrochloride], the IC50 was determined as 70 µM.

In the case of `NCCc1cn(Nc2ccncc2)c2ccccc12` [3-Aminoethyl-N-(4-pyridinyl)-1H-indol-1-amine dimaleate], the IC50 is 44 µM.

For `CCCN(c1ccncc1)n1cc(CN)c2ccccc21` [3-Aminomethyl-N-propyl-N-(4-pyridinyl)-1H-indol-1-amine dihydrochloride], the IC50 turned out to be 10 µM. Regarding `Clc1cn(Nc2ccncc2)c2ccccc12` [3-Chloro-N-(4-pyridinyl)-1H-indol-1-amine salicylate], the IC50 stood at 11 µM.

On to `CCCN(c1ccncc1)n1cc(Cl)c2ccccc21` [3-Chloro-N-propyl-N-(4-pyridinyl)-1H-1-amine hydrochloride], for which the IC50 stood at 10 µM. `CCc1cn(N(C)c2ccncc2)c2ccccc12` [3-Ethyl-N-methyl-N-(4-pyridinyl)-1H-indol-1-amine hydrochloride]: the IC50 was determined as 12 µM. On the same count and under the same terms, next, `CCCN(c1ccncc1F)n1cccc1` [3-Fluoro-N-propyl-N-(1H-pvrrol-1-yl)-4-pyridinamine hydrochloride]: 46 µM; `Cc1cn(Nc2ccncc2)c2ccc(O)cc12` [3-Methyl-1-(4-pyridinylamino)-1H-indol-5-ol]: 20 µM; `CCCN(c1ccncc1)n1cc(C)c2cc(O)ccc21` [3-Methyl-1-(propyl-4-pyridinylamino)-1H-indol-5-ol hemi-oxalate]: 21 µM.

Regarding `Cc1cn(Nc2ccncc2)c2ccccc12.O=C(O)C(=O)O` [3-Methyl-N-(4-pyridinyl)-1H-indol-1-amine oxalate], the IC50 turned out to be 11 µM. The same measure, in the same setting: next, `Nc1cnccc1Nn1ccc2ccccc21` [4-[N-(1H-indol-1-yl)]-3,4-pyridinamine, 4-[N-(1H-indol-1-yl)]-3,4-pyridinamine hemihydrate]: 22 µM.

As to `CCCN(c1ccncc1)n1ccc2cc(Br)ccc21` [5-Bromo-N-propyl-N-(4-pyridinyl)-1H-indol-1-amine maleate], the 50% inhibitory concentration (IC50) stood at 14 µM.

In the case of `Brc1ccc2c(ccn2Nc2ccncc2)c1` [5-bromo-N-(4-pyridinyl)-1H-indol-1-amine, 5-Bromo-N-(4-pyridinyl)-1H-indol-1-amine maleate], the IC50 amounted to 23 µM. In the case of `NC(=O)N1c2ccccc2C=Cc2ccccc21` [Carbamazepine, reference compound], the IC50 amounted to 94 µM.

With `CC(C)N(c1ccncc1)n1ccc2ccccc21` [N-(1-Methylethyl)-N-(4-pyridinyl)-1H-indol-1-amine maleate], the IC50 worked out at 9 µM. As to `c1ccn(Nc2ccncc2)c1` [N-(1H-pyrrol-1-yl)-4-pyridinamine, N-(1H-Pyrrol-1-yl)-4-pyridinamine], the IC50 is 40 µM.

Consider `CC(C)CN(c1ccncc1)n1ccc2ccccc21` [N-(2-Methylpropyl)-N-(4-pyridinyl)-1H-indol-1-amine maleate], for which the IC50 is 9 µM. For the compound `c1ccc(Nn2ccc3ccccc32)nc1` [N-(2-pyridinyl)-1H-indol-1-amine, N-(2-Pyridinyl)-1H-indol-1-amine], the IC50 stood at 12 µM.

With `Clc1cnccc1Nn1ccc2ccccc21` [N-(3-Chloro-4-pyridinyl)-1H-indol-1-amine hydrochloride], the IC50 amounted to 14 µM. As to `Cc1cn(Nc2ccncc2Cl)c2ccccc12` [N-(3-Chloro-4-pyridinyl)-3-methyl-1H-indol-1-amine hydrochloride], the IC50 worked out at 29 µM. Same read-out and setting: to `CCCN(c1ccncc1Cl)n1cc(C)c2ccccc21` [N-(3-Chloro-4-pyridinyl)-3-methyl-N-propyl-1H-indol-1-amine] belongs 44 µM; to `CCCN(c1ccncc1Cl)n1ccc2ccccc21` [N-(3-Chloro-4-pyridinyl)-N-propyl-1H-indol-1-amine hydrochloride], 32 µM. For the compound `Cc1cn(Nc2ccncc2F)c2ccccc12` [N-(3-Fluoro-4-pyridinyl)-3-methyl-1H-indol-1-amine], the IC50 was 42 µM. For `CCCN(c1ccncc1F)n1cc(C)c2ccccc21` [N-(3-Fluoro-4-pyridinyl)-N-propyl-3-methyl-1H-indol-1-amine hydrochloride], the IC50 is 31 µM. Turning to `Cc1cnccc1Nn1ccc2ccccc21` [N-(3-Methyl-4-pyridinyl)-1H-indol-1-amine], the IC50 came to 21 µM. The same measure, in the same setting: next, `c1cncc(Nn2ccc3ccccc32)c1` [N-(3-pyridinyl)-1H-indol-1-amine, N-(3-Pyridinyl)-1H-indol-1-amine]: 12 µM. With `c1ccc2c(c1)ccn2Nc1ccncc1` [N-(4-pyridinyl)-1H-indol-1-amine, N-(4-Pyridinyl)-1H-indol-1-amine maleate], the IC50 was determined as 18 µM. On to `CCN(c1ccncc1)n1cccc1` [N-Ethyl-N-(1H-pyrrol-1-yl)-4-pyridinamine hydrochloride], for which the IC50 turned out to be 86 µM. Turning to `CCCN(c1ccncc1)n1cccc1` [N-Propyl-N-(1H-pyrrol-1-yl)-4-pyridinamine hydrochloride], the IC50 turned out to be 66 µM. On the same count and under the same terms, next, `CCCN(c1ccncc1)n1ccc2ccccc21.Cl` [N-Propyl-N-(4-pyridinyl)-1H-indol-1-amine hydrochloride]: 5 µM.

The subject of another assay is Male CD-1 mice. Put plainly: Supramaximal electroshock in mice (block of tonic seizure / extensor tonus). It is filed as in vivo. To be noted: Mus musculus, ip, @ 30 mpk, intraperitoneally, read-out: Inhibition of supramaximal electroshock (protection, normalized percent inhibition). As for the experimental part: This procedure is used as to predict anticonvulsant activity of a test compound in vivo by its ability to block a full tonic seizure induced by a supramaximal electroshock stimulation as an indication of efficacy in preventing grand mal seizures.
Male CD-1 mice (Charles River) weighing 18-30 grams were housed in accordance with the "NIH Guide to Care and Use of Laboratory Animals" (National Institutes of Health Care Publication 85-23, revised 1985) with a 12 hour light/dark cycle and free access to food and water. On the day of testing, animals are brought to the laboratory and randomly assigned to groups of six for the time course experiments and to test groups of ten for the dose-response experiments.
The apparatus used for the test was the Wahlquist Electroshock Stimulator (Model H), which has a power source of 120 volts ac. A current of 15.5 mA lasting for 300 msec was delivered by placing the terminals of the stimulator across the eyes of the animal. This stimulus results in a tonic seizure, defined as a brief period of hindlimb flexion followed by a prolonged period of hindlimb extension. […] Protection is calculated as a normalized percent inhibition relative to a vehicle treated control group.
A time course is performed to determine the peak time of drug action and then a dose response performed at the peak time to determine drug potency. Mice are dosed in a randomized fashion using a total of 4 dose groups and one vehicle control group. The ED50 value and 95% confidence limits are calculated by a computerized Litchfield and Wilcoxon analysis.
Drugs are prepared dissolved in distilled water and, if insoluble a drop of surfactant is added.. Drugs are routinely administered intraperitoneally for this test and given in a dosage volume of 10 ml/kg.
The inhibition is the share of the control response that was lost under treatment. Turning to `CCCN(c1ccncc1F)n1cc(C)c2ccccc21` [N-(3-Fluoro-4-pyridinyl)-N-propyl-3-methyl-1H-indol-1-amine hydrochloride], the inhibition at 30 mg/kg was found to be 50%.

The same assay, now with this note: Mus musculus, ip, @ 60 mpk, intraperitoneally, read-out: Inhibition of supramaximal electroshock (protection, normalized percent inhibition).
Take `CCCN(c1ccncc1F)n1cc(C)c2ccccc21` [N-(3-Fluoro-4-pyridinyl)-N-propyl-3-methyl-1H-indol-1-amine hydrochloride]: the inhibition at 60 mg/kg was found to be 50%.

Still in this assay, the particulars now being: Mus musculus, ip, intraperitoneally, dose response at peak time, read-out: INHIBITION OF SUPRAMAXIMAL ELECTROSHOCK IN MICE ED50.
For orientation: ED50 means the midpoint of the dose-response relation. As to `Cc1cn(Nc2ccncc2)c2ccccc12.O=C(O)C(=O)O` [3-Methyl-N-(4-pyridinyl)-1H-indol-1-amine oxalate], the ED50 was 13 mg/kg.

Take `NC(=O)N1c2ccccc2C=Cc2ccccc21` [Carbamazepine, reference compound]: the ED50 was 18.6 mg/kg. `O=C1NC(=O)C(c2ccccc2)(c2ccccc2)N1` [Diphenylhydantoin, reference compound]: the ED50 is 9.4 mg/kg.

Consider `CCCN(c1ccncc1)n1c(C)ccc1C.O=C(O)/C=C\C(=O)O` [N-(2,5-Dimethyl-1H-pyrrol-1-yl)-N-(n-propyl)-4-pyridinamine maleate], for which the ED50 was found to be 50.1 mg/kg. With `CCCN(c1ccncc1)n1ccc2ccccc21.Cl` [N-Propyl-N-(4-pyridinyl)-1H-indol-1-amine hydrochloride], the ED50 was found to be 14.2 mg/kg.

The same assay, now with this note: intraperitoneally, dose response at peak time.
As to `CCCN(c1ccncc1)n1cc(C)c2ccccc21.O=C(O)/C=C\C(=O)O` [3-Methyl-N-propyl-N-(4-pvridinyl)-1H-indol-1-amine maleate], the “INHIBITION OF SUPRAMAXIMAL ELECTROSHOCK IN MICE ED50” value turned out to be 14.4 mg/kg.
